Results from patent US9815796B2 (Merck Sharp & Dohme Corp., priority 2013, dated 2017).
Read-outs that look alike come from different tables or passages of the source.

Key:
Rhesus PDE2A3 = Rhesus PDE2A3 (Macaca mulatta, UniProt B3VTJ2); assay: PDE2 fluorescence polarization (IMAP FP) inhibition assay, rhesus enzyme; type: biochemical, rhesus macaque
Method in brief: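 Rhesus PDE2A3 came from lysate of transiently transfected AD293 cells, diluted to give 20% substrate conversion. Substrate was 50 nM FAM-cAMP with 1 uM cGMP activator in Tris pH 7.2/MgCl2 buffer, run 60 min at room temperature over 10-point 3-fold dilutions in 1% DMSO. Read-out was IMAP fluorescence polarization (mP) after ≥1 h binding.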

human PDE2A1 = human PDE2A1 (Homo sapiens (Human), UniProt O00408); assay: IMAP FP PDE selectivity panel, human PDE2A1; type: biochemical
human PDE2A1, sequence (O00408 other isoform, or with tags, fused parts or gaps): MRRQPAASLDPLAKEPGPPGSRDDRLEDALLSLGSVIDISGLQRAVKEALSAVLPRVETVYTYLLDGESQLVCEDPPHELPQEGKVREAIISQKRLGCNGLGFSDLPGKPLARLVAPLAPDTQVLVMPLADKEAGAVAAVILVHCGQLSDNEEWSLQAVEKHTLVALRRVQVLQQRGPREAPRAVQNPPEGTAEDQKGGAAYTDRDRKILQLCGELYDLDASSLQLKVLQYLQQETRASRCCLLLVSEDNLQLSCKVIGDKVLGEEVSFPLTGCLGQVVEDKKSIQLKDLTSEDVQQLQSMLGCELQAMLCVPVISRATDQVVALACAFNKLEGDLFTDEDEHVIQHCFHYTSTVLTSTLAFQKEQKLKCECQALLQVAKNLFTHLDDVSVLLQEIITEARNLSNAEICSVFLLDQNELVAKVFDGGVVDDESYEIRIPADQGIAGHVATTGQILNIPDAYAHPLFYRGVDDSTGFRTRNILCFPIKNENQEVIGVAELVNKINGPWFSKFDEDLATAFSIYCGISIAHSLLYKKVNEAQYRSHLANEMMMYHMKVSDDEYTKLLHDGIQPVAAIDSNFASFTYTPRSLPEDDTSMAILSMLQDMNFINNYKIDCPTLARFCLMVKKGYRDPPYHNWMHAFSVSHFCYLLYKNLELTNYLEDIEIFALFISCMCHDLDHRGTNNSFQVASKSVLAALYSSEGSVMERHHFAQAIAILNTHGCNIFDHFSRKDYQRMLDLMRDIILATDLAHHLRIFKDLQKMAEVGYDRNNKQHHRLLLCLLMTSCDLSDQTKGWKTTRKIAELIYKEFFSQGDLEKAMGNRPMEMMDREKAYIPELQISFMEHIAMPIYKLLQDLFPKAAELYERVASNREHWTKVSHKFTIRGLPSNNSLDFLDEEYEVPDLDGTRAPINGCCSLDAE
Method in brief: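 GST-tagged human PDE2A1 expressed in insect cells, run at room temperature for 60 min with 50 nM FAM-cAMP containing 1000 nM cGMP, pH 7.2 Tris/MgCl2 buffer. IMAP fluorescence polarization read after binding step.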

[1] = Rhesus PDE2, Lab A, read-out: Rhesus PDE2 Ki (nM) - Lab A
[2] = Human PDE2, Lab A, read-out: Human PDE2 Ki (nM) - Lab A
[3] = Human PDE2, Lab B, read-out: Human PDE2 Ki (nM) - Lab B
[4] = Rhesus PDE2, Lab B, read-out: Rhesus PDE2 Ki (nM) - Lab B

Rhesus PDE2A3, sequence (B3VTJ2 1-941): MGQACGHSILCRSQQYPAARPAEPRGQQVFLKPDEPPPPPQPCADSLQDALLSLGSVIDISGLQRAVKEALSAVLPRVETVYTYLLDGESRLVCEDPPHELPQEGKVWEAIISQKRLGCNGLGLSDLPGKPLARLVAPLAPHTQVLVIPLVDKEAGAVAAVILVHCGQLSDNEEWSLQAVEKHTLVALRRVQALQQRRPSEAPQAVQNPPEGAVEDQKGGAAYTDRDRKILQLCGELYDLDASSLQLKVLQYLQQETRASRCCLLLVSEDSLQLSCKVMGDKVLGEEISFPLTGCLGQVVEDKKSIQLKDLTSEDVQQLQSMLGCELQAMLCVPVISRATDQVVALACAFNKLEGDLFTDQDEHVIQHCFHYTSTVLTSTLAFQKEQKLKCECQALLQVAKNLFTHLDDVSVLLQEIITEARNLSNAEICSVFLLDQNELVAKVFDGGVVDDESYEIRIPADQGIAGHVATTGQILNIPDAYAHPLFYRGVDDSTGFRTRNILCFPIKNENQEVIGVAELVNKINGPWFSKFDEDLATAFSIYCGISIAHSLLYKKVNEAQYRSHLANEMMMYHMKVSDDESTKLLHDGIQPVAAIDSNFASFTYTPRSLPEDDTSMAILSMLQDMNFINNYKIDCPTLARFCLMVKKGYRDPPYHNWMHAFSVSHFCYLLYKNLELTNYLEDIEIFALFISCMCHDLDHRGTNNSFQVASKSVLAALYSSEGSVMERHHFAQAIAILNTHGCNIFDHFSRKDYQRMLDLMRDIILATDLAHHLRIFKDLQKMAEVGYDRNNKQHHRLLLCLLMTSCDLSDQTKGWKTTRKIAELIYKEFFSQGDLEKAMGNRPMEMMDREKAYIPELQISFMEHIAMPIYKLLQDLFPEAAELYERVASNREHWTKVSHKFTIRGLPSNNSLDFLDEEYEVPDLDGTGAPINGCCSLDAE

| Structure (SMILES) | Ki (Rhesus PDE2A3; [1]) [nM] | Ki (human PDE2A1; [2]) [nM] | Ki (human PDE2A1; [3]) [nM] | Ki (Rhesus PDE2A3; [4]) [nM] |
| --- | --- | --- | --- | --- |
| Cc1nc(C(=O)NC(C)(C)c2ccc(OC(F)(F)F)c(F)c2)cc(=O)[nH]1 [Example 48, N-{1-[3-fluoro-4-(trifluoromethoxy)phenyl]-1-methylethyl}-2-methyl-6-oxo-1,6-dihydropyrimidine-4-carboxamide] | 235 | 127 | 80 | – |
| CCC(NC(=O)c1cc(=O)[nH]c(-c2ccccc2)n1)c1ccc(C(C)(C)C)cc1 (centres unmarked) [Example 163, N-[1-(4-tert-butylphenyl)propyl]-6-oxo-2-phenyl-1,6-dihydropyrimidine-4-carboxamide] | 61 | 36 | – | – |
| O=C(NC(c1ccc(F)cc1)c1ccc(C(F)(F)F)cc1)c1cc(=O)[nH]c(-c2ccccc2)n1 (centres unmarked) [Example 367, N-{(4-fluorophenyl)[4-(trifluoromethyl)phenyl]methyl}-6-oxo-2-phenyl-1,6-dihydropyrimidine-4-carboxamide] | 74 | – | 262 | 314 |
| Cc1nc(C(=O)N[C@H](C)c2ccc(C3CC3)c(F)c2)cc(=O)[nH]1 [Example 620, N-[(1R)-1-(4-cyclopropyl-3-fluorophenyl)ethyl]-2-methyl-6-oxo-1,6-dihydropyrimidine-4-carboxamide] | – | – | 19 | 15 |
| CC(C)(NC(=O)c1cc(=O)[nH]c(C2CC2)n1)c1ccc(SC(F)(F)F)cc1 [Example 222, 2-cyclopropyl-N-(1-methyl-1-{4-[(trifluoromethyl)sulfanyl]phenyl}ethyl)-6-oxo-1,6-dihydropyrimidine-4-carboxamide] | 89 | 45 | – | – |
| Cc1nc(C(=O)NC(C#N)c2ccc(C(F)(F)F)cc2)cc(=O)[nH]1 (centres unmarked) [Example 33, N-{cyano[4-(trifluoromethyl)phenyl]methyl}-2-methyl-6-oxo-1,6-dihydropyrimidine-4-carboxamide] | 802 | 656 | – | – |
| COc1ccc(C(C)(C)c2nc(C(=O)N[C@@H](c3ccc(SC(F)(F)F)cc3)C(C)C)cc(=O)[nH]2)cc1 [Example 490, 2-[1-(4-methoxyphenyl)-1-methylethyl]-N-[(1R)-2-methyl-1-{4-[(trifluoromethyl)sulfanyl]phenyl}propyl]-6-oxo-1,6-dihydropyrimidine-4-carboxamide] | – | – | 31 | 43 |
| CCc1nc(C(=O)NC2(c3ccc(C(F)(F)F)c(F)c3)CC2)cc(=O)[nH]1 [Example 601, 2-ethyl-N-{1-[3-fluoro-4-(trifluoromethyl)phenyl]cyclopropyl}-6-oxo-1,6-dihydropyrimidine-4-carboxamide] | – | – | 8.2 | 8 |
| CC(C)[C@@H](NC(=O)c1cc(=O)[nH]c(-c2ccccc2)n1)c1ccc(SC(F)(F)F)c(F)c1 [Example 407, N-[(1R)-1-{3-fluoro-4-[(trifluoromethyl)sulfanyl]phenyl}-2-methylpropyl]-6-oxo-2-phenyl-1,6-dihydropyrimidine-4-carboxamide] | – | – | 3.6 | 4.5 |
| Cc1nc(C(=O)NC(C(=O)N(C)C)c2ccc(C(F)(F)F)cc2)cc(=O)[nH]1 (centres unmarked) [Example 329, N-{2-(dimethylamino)-2-oxo-1-[4-(trifluoromethyl)phenyl]ethyl}-2-methyl-6-oxo-1,6-dihydropyrimidine-4-carboxamide] | 1420 | 565 | – | – |
| O=C(NC1(c2ccc(C(F)(F)F)cc2)CCCC1)c1cc(=O)[nH]c(-c2ccccc2)n1 [Example 415, 6-oxo-2-phenyl-N-{1-[4-(trifluoromethyl)phenyl]cyclopentyl}-1,6-dihydropyrimidine-4-carboxamide] | – | – | 30 | 29 |
| C[C@@H](NC(=O)c1cc(=O)[nH]c(-c2ccc(F)c(F)c2)n1)c1ccc(C(F)(F)F)cc1 [Example 139, 2-(3,4-difluorophenyl)-6-oxo-N-{(1R)-1-[4-(trifluoromethyl)phenyl]ethyl}-1,6-dihydropyrimidine-4-carboxamide] | 138 | 144 | – | – |
| C[C@@H](NC(=O)c1cc(=O)[nH]c(-c2ncccn2)n1)c1cc(F)c(C(F)(F)F)c(F)c1 [Example 108, N-{(1R)-1-[3,5-difluoro-4-(trifluoromethyl)phenyl]ethyl}-6-oxo-1,6-dihydro-2,2′-bipyrimidine-4-carboxamide] | 25 | ~9.2 | 39 | 33 |
| COc1ccc(Cc2nc(C(=O)N[C@@H](c3ccc(SC(F)(F)F)c(F)c3)C(C)C)cc(=O)[nH]2)cc1 [Example 470, N-[(1R)-1-{3-fluoro-4-[(trifluoromethyl)sulfanyl]phenyl}-2-methylpropyl]-2-(4-methoxybenzyl)-6-oxo-1,6-dihydropyrimidine-4-carboxamide] | – | – | 1.3 | 1.2 |

The remaining compounds from weak to strong by Ki (Rhesus PDE2A3; [1]), led by results:

| Ki (Rhesus PDE2A3; [1]) [nM] | Ki (human PDE2A1; [2]) [nM] | Ki (human PDE2A1; [3]) [nM] | Ki (Rhesus PDE2A3; [4]) [nM] | Structure (SMILES) |
| --- | --- | --- | --- | --- |
| 24 | – | 33 | 36 | C[C@@H](NC(=O)c1cc(=O)[nH]c(-c2ccccc2)n1)c1ccc(N(C)C)cc1 [Example 374, N-{(1R)-1-[4-(dimethylamino)phenyl]ethyl}-6-oxo-2-phenyl-1,6-dihydropyrimidine-4-carboxamide] |
| 23 | 18 | – | – | Cc1nc(C(=O)N[C@@H](c2ccc(C(F)(F)F)cc2)C2CC2)cc(=O)[nH]1 [Example 69, N-{(R)-cyclopropyl[4-(trifluoromethyl)phenyl]methyl}-2-methyl-6-oxo-1,6-dihydropyrimidine-4-carboxamide] |
| 21 | ~5.4 | 27 | 26 | CC(NC(=O)c1cc(=O)[nH]c(-c2ncccn2)n1)c1ccc(C2CC2)cc1 (centres unmarked) [Example 83, N-[1-(4-cyclopropylphenyl)ethyl]-6-oxo-1,6-dihydro-2,2′-bipyrimidine-4-carboxamide] |
| 16 | ~9.6 | 12 | 19 | Cc1nc(C(=O)NC2(c3ccc(OC(F)(F)F)c(F)c3)CC2)cc(=O)[nH]1 [Example 67, N-{1-[3-fluoro-4-(trifluoromethoxy)phenyl]cyclopropyl}-2-methyl-6-oxo-1,6-dihydropyrimidine-4-carboxamide] |
| 13 | ~12 | 20 | 21 | C[C@@H](NC(=O)c1cc(=O)[nH]c(C2CC2)n1)c1ccc(C2CC2)cc1 [Example 256, 2-cyclopropyl-N-[(1R)-1-(4-cyclopropylphenyl)ethyl]-6-oxo-1,6-dihydropyrimidine-4-carboxamide] |
| 9.2 | 4.9 | – | – | CC[C@@H](NC(=O)c1cc(=O)[nH]c(C)n1)c1ccc(SC(F)(F)F)cc1 [Example 29, 2-methyl-6-oxo-N-[(1R)-1-{4-[(trifluoromethyl)sulfanyl]phenyl}propyl]-1,6-dihydropyrimidine-4-carboxamide] |
| 6.4 | 6.1 | – | – | C[C@@H](NC(=O)c1cc(=O)[nH]c(-c2ccccc2)n1)c1ccc(C(F)(F)F)c(Cl)c1 [Example 190, N-{(1R)-1-[3-chloro-4-(trifluoromethyl)phenyl]ethyl}-6-oxo-2-phenyl-1,6-dihydropyrimidine-4-carboxamide] |
| 1.4 | – | 1.3 | 1.3 | CC(C)[C@@H](NC(=O)c1cc(=O)[nH]c(-c2ncccn2)n1)c1ccc(SC(F)(F)F)c(F)c1 [Example 245, N-[(1R)-1-{3-fluoro-4-[(trifluoromethyl)sulfanyl]phenyl}-2-methylpropyl]-6-oxo-1,6-dihydro-2,2′-bipyrimidine-4-carboxamide] |
